Experimental findings from ChEMBL document CHEMBL1154288, “The discovery and unique pharmacological profile of RO4938581 and RO4882224 as potent and selective GABAA alpha5 inverse agonists for the treatment of cognitive dysfunction” (Bioorg Med Chem Lett, 2009) are described below.

One series relates to HEK293. In words: Selectivity ratio of Ki for cloned human GABA alpha-1-beta-3-gamma-2 receptor expressed in HEK293 cells to Ki for cloned human GABA alpha-5-beta-3-gamma-2 receptor expressed in HEK293 cells. The class given is cell-based.
In series [1] the target is T1, GABA-A receptor; alpha-1/beta-3/gamma-2 (Homo sapiens, UniProt P14867+P18507+P28472).
T1 sequence (P14867 whole entry): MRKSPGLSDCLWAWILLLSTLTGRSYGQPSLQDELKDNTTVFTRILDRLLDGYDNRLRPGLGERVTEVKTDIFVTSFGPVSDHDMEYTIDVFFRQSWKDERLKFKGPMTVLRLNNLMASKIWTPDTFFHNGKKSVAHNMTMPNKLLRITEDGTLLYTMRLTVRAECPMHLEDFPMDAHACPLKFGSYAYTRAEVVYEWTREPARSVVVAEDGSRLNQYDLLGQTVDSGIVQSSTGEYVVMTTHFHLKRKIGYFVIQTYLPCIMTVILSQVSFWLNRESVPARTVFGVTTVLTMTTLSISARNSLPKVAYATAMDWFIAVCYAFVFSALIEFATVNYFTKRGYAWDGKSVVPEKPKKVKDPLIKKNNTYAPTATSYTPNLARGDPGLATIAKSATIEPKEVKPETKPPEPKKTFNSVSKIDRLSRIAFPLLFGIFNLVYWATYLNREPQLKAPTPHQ
T1 sequence (P18507 whole entry): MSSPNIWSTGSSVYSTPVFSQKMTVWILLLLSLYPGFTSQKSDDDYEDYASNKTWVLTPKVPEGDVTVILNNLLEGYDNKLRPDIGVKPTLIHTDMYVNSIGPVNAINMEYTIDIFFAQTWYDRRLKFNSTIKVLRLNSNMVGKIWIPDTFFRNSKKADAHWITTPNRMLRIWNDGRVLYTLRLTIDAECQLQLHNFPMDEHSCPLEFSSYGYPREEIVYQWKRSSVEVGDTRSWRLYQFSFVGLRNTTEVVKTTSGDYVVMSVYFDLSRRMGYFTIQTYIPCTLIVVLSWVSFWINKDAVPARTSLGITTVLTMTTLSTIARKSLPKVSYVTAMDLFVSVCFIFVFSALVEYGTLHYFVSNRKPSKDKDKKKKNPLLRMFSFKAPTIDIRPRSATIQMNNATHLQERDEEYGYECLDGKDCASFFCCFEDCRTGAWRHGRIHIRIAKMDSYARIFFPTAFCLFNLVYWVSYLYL
T1 sequence (P28472 whole entry): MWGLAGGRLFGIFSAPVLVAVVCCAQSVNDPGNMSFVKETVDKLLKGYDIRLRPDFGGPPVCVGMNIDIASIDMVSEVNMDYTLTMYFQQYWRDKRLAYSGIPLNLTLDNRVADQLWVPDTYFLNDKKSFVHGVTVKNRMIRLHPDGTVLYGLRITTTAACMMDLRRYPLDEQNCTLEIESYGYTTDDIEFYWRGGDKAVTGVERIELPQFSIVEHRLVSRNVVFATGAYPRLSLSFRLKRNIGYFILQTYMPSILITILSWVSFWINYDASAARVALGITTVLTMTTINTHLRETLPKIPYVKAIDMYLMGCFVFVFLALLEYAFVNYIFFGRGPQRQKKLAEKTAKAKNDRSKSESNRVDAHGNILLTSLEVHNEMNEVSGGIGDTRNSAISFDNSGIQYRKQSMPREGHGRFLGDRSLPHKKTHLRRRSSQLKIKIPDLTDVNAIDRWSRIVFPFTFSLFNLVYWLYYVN
In words: Displacement of [3H]Flumazenil from cloned human GABA alpha-1-beta-3-gamma-2 receptor expressed in HEK293 cells. It counts as cell-based. (In general: Displacement assays read how much labelled ligand stays bound in the presence of the test substance.)

Series [2] has as its target GABA-A receptor; alpha-1/beta-2/gamma-2 (Rattus norvegicus) (UniProt P18508+P62813+P63138). As to the kind of experiment: Inverse agonist activity at rat GABA alpha-1-beta-3-gamma-2 receptor expressed in HEK293 cells by electrophysiology assay relative to GABA. It counts as functional, cell-based.
Series [3] has as its target Gamma-aminobutyric acid receptor subunit alpha-3 (Rattus norvegicus) (UniProt P20236). As to the kind of experiment: Inverse agonist activity at rat GABA alpha-3-beta-3-gamma-2 receptor expressed in HEK293 cells by electrophysiology assay relative to GABA. It counts as functional, cell-based.
Series [4] in a line: Solubility by lypophlisation solubility assay. It counts as physicochemical.
Series [5] in a line: Lipophilicity, log D at pH 7.4. The class given is physicochemical. Conditions: buffer.
Series [6] can be described thus: Half life in rat. It counts as ADME, organism-based. Particulars: in vivo.
The nature of series [7]: Clearance in rat. It counts as ADME, organism-based. Particulars: in vivo.
A short description of series [8]: Ratio of drug level in brain to plasma in rat. The class given is ADME.
For series [9], the system named is Rattus norvegicus. As to the kind of experiment: Behavioral effect in Lister hooded rat assessed as reversal of scopolamine-induced working memory impairment at 0.3 to 1 mg/kg, po by delayed match to position task method. The class given is functional, organism-based.
Series [10] relates to Rattus norvegicus. As to the kind of experiment: Behavioral effect in Lister hooded rat assessed as inhibition of diazepam-induced spartial learning impairment at 1 to 10 mg/kg, po by delayed match to position task method. The class given is functional, organism-based.
For a further series, the system named is Cynomolgus monkey. In words: Behavioral effect in cynomolgus monkey assessed as improved executive function at 3 to10 mg/kg, po by object retrieval task method. It counts as functional, organism-based. Particulars: Macaca fascicularis.
The species named for series [11] is Rattus norvegicus. As to the kind of experiment: Anxiogenic activity in Lister hooded rat by elevated plus maze test. It counts as functional, organism-based.
The species entered for a further series is Mus musculus. In words: Anticonvulsive activity in mouse audiogenic seizure model. The class given is functional, organism-based.
Series [12] deals with Rattus norvegicus. In words: Behavioral effect in Lister hooded rat assessed as reversal of scopolamine-induced working memory impairment at 0.1 mg/kg, po after 24 seconds by delayed match to position task method. The class given is functional, organism-based. Further details: dose 0.1 mg/kg.
The species named for series [13] is Rattus norvegicus. As to the kind of experiment: Anxiogenic activity in Lister hooded rat by social approach avoidance test. The class given is functional, organism-based.
The target in series [14] is GABA-A receptor; alpha-5/beta-3/gamma-2 (Homo sapiens) (UniProt P18507+P28472+P31644). In words: Inverse agonist activity at human GABA alpha-5-beta-3-gamma-2 receptor expressed in Xenopus laevis oocyts by electrophysiology assay relative to GABA. The class given is functional.
Series [15] concerns Rattus norvegicus. As to the kind of experiment: Behavioral effect in Lister hooded rat assessed as reversal of scopolamine-induced working memory impairment at 1 mg/kg, po by delayed match to position task method. It counts as functional, organism-based. Further details: dose 1 mg/kg.
The test system of series [16] is Rattus norvegicus. In words: Behavioral effect in Lister hooded rat assessed as reversal of scopolamine-induced working memory impairment at 1 mg/kg, po after 16 seconds by delayed match to position task method. The class given is functional, organism-based. Further details: dose 1 mg/kg.
Series [17] concerns Rattus norvegicus. As to the kind of experiment: Behavioral effect in Lister hooded rat assessed as reversal of scopolamine-induced working memory impairment at 1 mg/kg, po after 24 seconds by delayed match to position task method. The class given is functional, organism-based. The arrangement: dose 1 mg/kg.

SMILES strings stand for the structures. Values after ≈ are worked out from the molar mass of the structure shown. Active and inactive are the calls of the source.

Gamma-aminobutyric acid receptor subunit alpha-3 (Rattus norvegicus), sequence (P20236 whole entry): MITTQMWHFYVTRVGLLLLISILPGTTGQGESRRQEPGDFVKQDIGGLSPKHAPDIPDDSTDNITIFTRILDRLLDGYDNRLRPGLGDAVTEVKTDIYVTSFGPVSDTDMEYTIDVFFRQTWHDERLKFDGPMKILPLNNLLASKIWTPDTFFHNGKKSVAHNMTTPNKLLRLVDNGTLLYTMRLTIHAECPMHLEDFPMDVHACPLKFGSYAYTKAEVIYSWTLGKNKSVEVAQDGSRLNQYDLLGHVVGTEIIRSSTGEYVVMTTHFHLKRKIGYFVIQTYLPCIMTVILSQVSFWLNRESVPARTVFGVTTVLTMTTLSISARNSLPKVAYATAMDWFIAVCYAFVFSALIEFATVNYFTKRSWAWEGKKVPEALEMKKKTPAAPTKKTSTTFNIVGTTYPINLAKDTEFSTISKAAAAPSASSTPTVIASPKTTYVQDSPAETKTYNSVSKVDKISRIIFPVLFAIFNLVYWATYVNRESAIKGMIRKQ

For `Cc1ncn2c1Cn1ncnc1-c1cc(Cl)ccc1-2`, in the series with HEK293, the Ratio Ki was 6. Further, the Ki (in general, a measure of affinity in units of concentration, obtained from inhibition or displacement) in series [1] amounted to 18 nM. Besides, the results for the Efficacy in series [2] and in series [3] were -11% and 4%, respectively. The concentration in solution in series [4] (solubility) was 13 µg/mL (≈ 47.8 µM). Besides, the logD (commonly lipophilicity at a set pH, counting ionised and neutral species) in series [5] was found to be 2. The half-life (as a rule, the time needed for the level to fall by half in the phase considered) in [6] is 3.4 h. Moreover, the clearance (usually the rate of elimination divided by the concentration) in series [7] was 7.2 mL/min/kg. The Kp (as a rule, the ratio of the level in a tissue or fluid to that in plasma or blood) in [8] worked out at 0.6.

`Clc1ncn2c1Cn1ncnc1-c1cc(Br)ccc1-2`: the Ratio Ki with HEK293 stood at 24. Also, the affinity in series [1], expressed as Ki, was 33 nM. The figures for the Efficacy in [2] and in [3] were -13% and -14%, respectively. Moreover, the solubility (usually how much of the substance goes into solution per volume) in series [4] came to 9 µg/mL (≈ 26.7 µM). The logD in [5] turned out to be 2.2. The compound further gave a half-life in series [6] of 1.6 h. In addition, the clearance in series [7] turned out to be 9.7 mL/min/kg.

Consider `FC(F)c1ncn2c1Cn1ncnc1-c1cc(Br)ccc1-2`, for which, in series [1], affinity was put at a Ki of 174 nM. Besides, the values for the Efficacy in series [2] and in series [3] were -3% and 2%, respectively. In series [4], this compound registered a solubility of 19 µg/mL (≈ 54 µM). The logD in series [5] turned out to be 1.9. In series [6], this compound had a half-life of 4.9 h. The same compound had a clearance in series [7] of 2.9 mL/min/kg. Besides, the Kp in series [8] was found to be 0.4. For the same compound, the outcome with Rattus norvegicus [9], in the series on Rattus norvegicus [10], in the series on Cynomolgus monkey and in the series with Rattus norvegicus [12] was Active. Besides, the outcome in the series filed under Rattus norvegicus [11], in the series listed under Mus musculus and in the series listed under Rattus norvegicus [13] was inactive.

In the case of `Clc1ccc2c(c1)-c1ncnn1Cc1c(Cl)ncn1-2`, the Ratio Ki in the series on HEK293 stood at 7. For the same compound, the outcome (in [14]; in the series on Rattus norvegicus [16]; in the series with Rattus norvegicus [17]) was Active. The Ki in [1] was found to be 15 nM. Also, the Efficacy is -3% in series [2] and -11% in [3]. Moreover, in [4], the solubility was found to be 27 µg/mL (≈ 92.4 µM). For the same compound, the log distribution coefficient (logD) in series [5] came to 1.8. The half-life in series [6] is 0.6 h. In series [7], the clearance was determined as 12.4 mL/min/kg. Besides, the Kp in series [8] was 0.2. Besides, in the series with Rattus norvegicus [15], the result was inactive.
